Assay results reported in publication PMC11480411, “Mucosal sugars delineate pyrazine vs pyrazinone autoinducer signaling in Klebsiella oxytoca” (Nature Communications, 2024).

Legend:
Assay in all cases: PRESTO-Tango GPCR screen
Type in all cases: cell-based
Details in all cases: 100 µM
PTGER2 = molecular target: T1, PTGER2 (Homo sapiens, UniProt P43116)
T1 construct: purchased PRESTO-Tango GPCR kit (Roth lab / Addgene)
Summary of the method: (§1)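 Receptor activation is detected through β-arrestin-TEV cleavage releasing tTA, which drives luciferase in HTLA cells. Transfected cells receive compound (100 μM final) in DMEM with 10 mM HEPES for 20 h; Bright-Glo luminescence is divided by the PBS-control signal.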

GPR161 = molecular target: T2, GPR161 (Homo sapiens, UniProt Q8N6U8)
T2 construct: purchased PRESTO-Tango GPCR kit (Roth lab / Addgene)
Summary of the method: as §1

GPR133 = molecular target: T3, GPR133 (Homo sapiens, UniProt Q6QNK2)
T3 construct: purchased PRESTO-Tango GPCR kit (Roth lab / Addgene)
Summary of the method: as §1

PTAFR = molecular target: T4, PTAFR (Homo sapiens, UniProt P25105)
T4 construct: purchased PRESTO-Tango GPCR kit (Roth lab / Addgene)
Summary of the method: as §1

GPR173 = molecular target: T5, GPR173 (Homo sapiens, UniProt Q9NS66)
T5 construct: purchased PRESTO-Tango GPCR kit (Roth lab / Addgene)
Summary of the method: as §1

GHRHR = molecular target: T6, GHRHR (Homo sapiens, UniProt Q02643)
T6 construct: purchased PRESTO-Tango GPCR kit (Roth lab / Addgene)
Summary of the method: as §1

GPR82 = molecular target: T7, GPR82 (Homo sapiens, UniProt Q96P67)
T7 construct: purchased PRESTO-Tango GPCR kit (Roth lab / Addgene)
Summary of the method: as §1

GPR3 = molecular target: T8, GPR3 (Homo sapiens, UniProt P46089)
T8 construct: purchased PRESTO-Tango GPCR kit (Roth lab / Addgene)
Summary of the method: as §1

GPR62 = molecular target: T9, GPR62 (Homo sapiens, UniProt Q9BZJ7)
T9 construct: purchased PRESTO-Tango GPCR kit (Roth lab / Addgene)
Summary of the method: as §1

ADORA2A = molecular target: T10, ADORA2A (Homo sapiens, UniProt P29274)
T10 construct: purchased PRESTO-Tango GPCR kit (Roth lab / Addgene)
Summary of the method: as §1

GPRC5A = molecular target: T11, GPRC5A (Homo sapiens, UniProt Q8NFJ5)
T11 construct: purchased PRESTO-Tango GPCR kit (Roth lab / Addgene)
Summary of the method: as §1

CCR8 = molecular target: T12, CCR8 (Homo sapiens, UniProt P51685)
T12 construct: purchased PRESTO-Tango GPCR kit (Roth lab / Addgene)
Summary of the method: as §1

P2RY12 = molecular target: T13, P2RY12 (Homo sapiens, UniProt Q9H244)
T13 construct: purchased PRESTO-Tango GPCR kit (Roth lab / Addgene)
Summary of the method: as §1

GPER = molecular target: T14, GPER (Homo sapiens, UniProt Q99527)
T14 construct: purchased PRESTO-Tango GPCR kit (Roth lab / Addgene)
Summary of the method: as §1

CRHR2 = molecular target: T15, CRHR2 (Homo sapiens, UniProt Q13324)
T15 construct: purchased PRESTO-Tango GPCR kit (Roth lab / Addgene)
Summary of the method: as §1

SUCNR1 = molecular target: T16, SUCNR1 (Homo sapiens, UniProt Q9BXA5)
T16 construct: purchased PRESTO-Tango GPCR kit (Roth lab / Addgene)
Summary of the method: as §1

CCKAR = molecular target: T17, CCKAR (Homo sapiens, UniProt P32238)
T17 construct: purchased PRESTO-Tango GPCR kit (Roth lab / Addgene)
Summary of the method: as §1

APJ = molecular target: T18, APJ (Homo sapiens, UniProt P35414)
T18 construct: purchased PRESTO-Tango GPCR kit (Roth lab / Addgene)
Summary of the method: as §1

GPR84 = molecular target: T19, GPR84 (Homo sapiens, UniProt Q9NQS5)
T19 construct: purchased PRESTO-Tango GPCR kit (Roth lab / Addgene)
Summary of the method: as §1

PTGER4 = molecular target: T20, PTGER4 (Homo sapiens, UniProt P35408)
T20 construct: purchased PRESTO-Tango GPCR kit (Roth lab / Addgene)
Summary of the method: as §1

ADRA1A = molecular target: T21, ADRA1A (Homo sapiens, UniProt P35348)
T21 construct: purchased PRESTO-Tango GPCR kit (Roth lab / Addgene)
Summary of the method: as §1

ADRA1B = molecular target: T22, ADRA1B (Homo sapiens, UniProt P35368)
T22 construct: purchased PRESTO-Tango GPCR kit (Roth lab / Addgene)
Summary of the method: as §1

OPRM1 = molecular target: T23, OPRM1 (Homo sapiens, UniProt P35372)
T23 construct: purchased PRESTO-Tango GPCR kit (Roth lab / Addgene)
Summary of the method: as §1

DRD1 = molecular target: T24, DRD1 (Homo sapiens, UniProt P21728)
T24 construct: purchased PRESTO-Tango GPCR kit (Roth lab / Addgene)
Summary of the method: as §1

ADRB2 = molecular target: T25, ADRB2 (Homo sapiens, UniProt P07550)
T25 construct: purchased PRESTO-Tango GPCR kit (Roth lab / Addgene)
Summary of the method: as §1

AVPR2 = molecular target: T26, AVPR2 (Homo sapiens, UniProt P30518)
T26 construct: purchased PRESTO-Tango GPCR kit (Roth lab / Addgene)
Summary of the method: as §1

GPR110 = molecular target: T27, GPR110 (Homo sapiens, UniProt Q5T601)
T27 construct: purchased PRESTO-Tango GPCR kit (Roth lab / Addgene)
Summary of the method: as §1

GPR45 = molecular target: T28, GPR45 (Homo sapiens, UniProt Q9Y5Y3)
T28 construct: purchased PRESTO-Tango GPCR kit (Roth lab / Addgene)
Summary of the method: as §1

BDKBR1 = molecular target: T29, BDKBR1 (Homo sapiens, UniProt P46663)
T29 construct: purchased PRESTO-Tango GPCR kit (Roth lab / Addgene)
Summary of the method: as §1

ELTD1 = molecular target: T30, ELTD1 (Homo sapiens, UniProt Q9HBW9)
T30 construct: purchased PRESTO-Tango GPCR kit (Roth lab / Addgene)
Summary of the method: as §1

GPR15 = molecular target: T31, GPR15 (Homo sapiens, UniProt P49685)
T31 construct: purchased PRESTO-Tango GPCR kit (Roth lab / Addgene)
Summary of the method: as §1

P2RY10 = molecular target: T32, P2RY10 (Homo sapiens, UniProt O00398)
T32 construct: purchased PRESTO-Tango GPCR kit (Roth lab / Addgene)
Summary of the method: as §1

NMUR1 = molecular target: T33, NMUR1 (Homo sapiens, UniProt Q9HB89)
T33 construct: purchased PRESTO-Tango GPCR kit (Roth lab / Addgene)
Summary of the method: as §1

GPR21 = molecular target: T34, GPR21 (Homo sapiens, UniProt Q99679)
T34 construct: purchased PRESTO-Tango GPCR kit (Roth lab / Addgene)
Summary of the method: as §1

P2RY13 = molecular target: T35, P2RY13 (Homo sapiens, UniProt Q9BPV8)
T35 construct: purchased PRESTO-Tango GPCR kit (Roth lab / Addgene)
Summary of the method: as §1

T32 sequence (O00398 whole entry, one chain of several): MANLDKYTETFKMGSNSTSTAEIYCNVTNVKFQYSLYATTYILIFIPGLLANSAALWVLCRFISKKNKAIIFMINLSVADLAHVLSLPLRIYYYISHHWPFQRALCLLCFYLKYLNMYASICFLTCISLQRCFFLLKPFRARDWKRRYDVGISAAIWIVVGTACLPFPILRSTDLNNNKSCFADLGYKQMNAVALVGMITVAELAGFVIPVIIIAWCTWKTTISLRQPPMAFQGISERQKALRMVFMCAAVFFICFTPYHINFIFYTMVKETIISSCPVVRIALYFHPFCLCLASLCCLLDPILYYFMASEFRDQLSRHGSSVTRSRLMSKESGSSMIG
T35 sequence (Q9BPV8 whole entry, one chain of several): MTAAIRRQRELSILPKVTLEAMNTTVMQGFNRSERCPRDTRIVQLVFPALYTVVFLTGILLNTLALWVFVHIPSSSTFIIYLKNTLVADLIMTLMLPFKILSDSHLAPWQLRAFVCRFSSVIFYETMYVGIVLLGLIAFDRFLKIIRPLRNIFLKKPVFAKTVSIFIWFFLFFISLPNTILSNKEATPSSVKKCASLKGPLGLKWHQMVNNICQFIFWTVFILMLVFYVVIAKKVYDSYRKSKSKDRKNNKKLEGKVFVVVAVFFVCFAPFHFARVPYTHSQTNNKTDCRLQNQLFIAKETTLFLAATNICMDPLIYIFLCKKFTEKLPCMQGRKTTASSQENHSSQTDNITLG
T24 sequence (P21728 whole entry): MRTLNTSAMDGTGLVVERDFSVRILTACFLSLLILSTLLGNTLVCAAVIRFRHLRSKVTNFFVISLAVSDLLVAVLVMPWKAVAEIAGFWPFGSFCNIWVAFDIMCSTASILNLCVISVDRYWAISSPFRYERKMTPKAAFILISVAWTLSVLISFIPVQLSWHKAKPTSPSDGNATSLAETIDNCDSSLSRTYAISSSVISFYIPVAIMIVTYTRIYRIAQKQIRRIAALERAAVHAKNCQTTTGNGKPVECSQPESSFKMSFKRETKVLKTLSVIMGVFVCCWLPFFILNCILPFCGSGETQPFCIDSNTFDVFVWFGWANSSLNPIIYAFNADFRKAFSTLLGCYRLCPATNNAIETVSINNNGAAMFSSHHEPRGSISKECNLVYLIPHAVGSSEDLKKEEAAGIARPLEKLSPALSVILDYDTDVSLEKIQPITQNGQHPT
T19 sequence (Q9NQS5 whole entry): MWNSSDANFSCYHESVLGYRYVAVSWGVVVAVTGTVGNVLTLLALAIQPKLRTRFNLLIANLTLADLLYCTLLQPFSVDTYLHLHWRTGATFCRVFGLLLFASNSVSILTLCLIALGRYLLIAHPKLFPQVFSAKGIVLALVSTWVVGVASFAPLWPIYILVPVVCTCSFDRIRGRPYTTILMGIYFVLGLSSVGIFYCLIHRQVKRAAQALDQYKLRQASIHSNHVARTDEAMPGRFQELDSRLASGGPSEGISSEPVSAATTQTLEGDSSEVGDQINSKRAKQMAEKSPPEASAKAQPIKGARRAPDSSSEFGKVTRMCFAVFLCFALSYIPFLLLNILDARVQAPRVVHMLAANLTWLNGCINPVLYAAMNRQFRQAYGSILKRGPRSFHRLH
T34 sequence (Q99679 whole entry): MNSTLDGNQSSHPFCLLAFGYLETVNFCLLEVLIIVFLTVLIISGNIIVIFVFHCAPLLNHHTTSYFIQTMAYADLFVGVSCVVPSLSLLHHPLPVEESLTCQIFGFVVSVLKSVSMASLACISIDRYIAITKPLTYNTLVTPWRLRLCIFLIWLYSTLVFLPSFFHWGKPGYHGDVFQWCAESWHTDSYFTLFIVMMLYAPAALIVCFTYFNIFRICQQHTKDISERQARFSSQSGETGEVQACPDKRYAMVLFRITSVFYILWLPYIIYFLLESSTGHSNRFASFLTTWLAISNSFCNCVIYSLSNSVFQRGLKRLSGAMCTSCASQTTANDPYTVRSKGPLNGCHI
T14 sequence (Q99527 whole entry): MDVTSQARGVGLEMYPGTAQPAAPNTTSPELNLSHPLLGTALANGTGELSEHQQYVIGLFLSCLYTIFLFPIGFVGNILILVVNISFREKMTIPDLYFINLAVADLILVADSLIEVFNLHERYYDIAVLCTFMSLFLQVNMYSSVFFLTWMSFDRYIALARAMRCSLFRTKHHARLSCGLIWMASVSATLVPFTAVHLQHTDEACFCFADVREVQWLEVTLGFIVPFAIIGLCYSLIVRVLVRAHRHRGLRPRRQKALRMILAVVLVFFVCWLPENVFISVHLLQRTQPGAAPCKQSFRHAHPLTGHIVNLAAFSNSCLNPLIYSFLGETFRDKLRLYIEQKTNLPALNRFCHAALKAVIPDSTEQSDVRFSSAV
T5 sequence (Q9NS66 whole entry): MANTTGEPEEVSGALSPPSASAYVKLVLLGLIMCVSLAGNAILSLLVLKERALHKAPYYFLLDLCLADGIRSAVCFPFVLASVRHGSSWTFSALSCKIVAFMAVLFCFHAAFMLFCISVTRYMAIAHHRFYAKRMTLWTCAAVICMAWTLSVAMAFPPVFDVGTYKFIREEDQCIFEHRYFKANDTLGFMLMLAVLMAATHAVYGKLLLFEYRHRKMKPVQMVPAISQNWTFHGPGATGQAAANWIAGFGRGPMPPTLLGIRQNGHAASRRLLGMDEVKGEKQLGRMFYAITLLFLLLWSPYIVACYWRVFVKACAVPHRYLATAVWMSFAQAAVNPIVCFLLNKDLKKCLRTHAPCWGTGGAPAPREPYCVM
T28 sequence (Q9Y5Y3 whole entry): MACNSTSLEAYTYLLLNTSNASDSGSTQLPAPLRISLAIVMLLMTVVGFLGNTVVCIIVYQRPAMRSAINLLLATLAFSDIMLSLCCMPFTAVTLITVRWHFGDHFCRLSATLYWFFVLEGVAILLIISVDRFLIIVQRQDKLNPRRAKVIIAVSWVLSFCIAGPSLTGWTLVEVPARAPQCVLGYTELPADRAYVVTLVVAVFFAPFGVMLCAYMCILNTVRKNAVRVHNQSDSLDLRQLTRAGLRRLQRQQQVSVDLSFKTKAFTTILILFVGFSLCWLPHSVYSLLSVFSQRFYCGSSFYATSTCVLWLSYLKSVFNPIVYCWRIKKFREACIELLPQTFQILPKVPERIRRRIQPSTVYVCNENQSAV
T2 sequence (Q8N6U8 whole entry): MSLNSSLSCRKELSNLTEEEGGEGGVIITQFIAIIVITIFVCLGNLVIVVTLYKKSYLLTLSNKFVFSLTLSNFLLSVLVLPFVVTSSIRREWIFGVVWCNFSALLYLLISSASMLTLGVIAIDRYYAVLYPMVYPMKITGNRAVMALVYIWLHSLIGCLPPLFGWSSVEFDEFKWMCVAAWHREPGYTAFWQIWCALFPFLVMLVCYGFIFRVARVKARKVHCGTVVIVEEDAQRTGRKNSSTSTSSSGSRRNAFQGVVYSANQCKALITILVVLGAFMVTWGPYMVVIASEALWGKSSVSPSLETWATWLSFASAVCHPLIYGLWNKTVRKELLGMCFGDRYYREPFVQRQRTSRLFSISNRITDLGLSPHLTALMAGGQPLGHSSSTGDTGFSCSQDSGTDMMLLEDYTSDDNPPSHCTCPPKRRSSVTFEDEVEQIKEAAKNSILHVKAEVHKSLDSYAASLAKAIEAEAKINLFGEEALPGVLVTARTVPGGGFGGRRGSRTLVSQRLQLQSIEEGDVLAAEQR
T29 sequence (P46663 whole entry): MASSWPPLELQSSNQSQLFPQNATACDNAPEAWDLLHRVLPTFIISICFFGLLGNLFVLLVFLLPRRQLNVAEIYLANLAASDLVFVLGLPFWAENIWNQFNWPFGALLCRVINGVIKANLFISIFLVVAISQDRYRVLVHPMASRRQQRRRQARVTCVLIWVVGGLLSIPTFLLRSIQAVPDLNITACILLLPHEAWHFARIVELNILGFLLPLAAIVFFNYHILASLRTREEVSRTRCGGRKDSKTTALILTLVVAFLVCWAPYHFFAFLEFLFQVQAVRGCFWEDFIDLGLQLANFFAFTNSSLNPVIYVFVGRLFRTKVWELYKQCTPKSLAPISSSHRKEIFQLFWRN
T4 sequence (P25105 whole entry): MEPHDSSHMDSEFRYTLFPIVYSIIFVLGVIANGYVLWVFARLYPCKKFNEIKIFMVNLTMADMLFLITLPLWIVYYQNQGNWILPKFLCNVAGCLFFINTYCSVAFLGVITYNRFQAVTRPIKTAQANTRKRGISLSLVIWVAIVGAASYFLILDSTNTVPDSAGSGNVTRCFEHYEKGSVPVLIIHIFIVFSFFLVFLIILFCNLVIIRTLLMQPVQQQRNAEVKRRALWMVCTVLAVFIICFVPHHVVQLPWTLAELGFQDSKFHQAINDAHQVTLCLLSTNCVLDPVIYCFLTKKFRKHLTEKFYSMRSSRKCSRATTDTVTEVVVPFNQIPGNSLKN
T17 sequence (P32238 whole entry): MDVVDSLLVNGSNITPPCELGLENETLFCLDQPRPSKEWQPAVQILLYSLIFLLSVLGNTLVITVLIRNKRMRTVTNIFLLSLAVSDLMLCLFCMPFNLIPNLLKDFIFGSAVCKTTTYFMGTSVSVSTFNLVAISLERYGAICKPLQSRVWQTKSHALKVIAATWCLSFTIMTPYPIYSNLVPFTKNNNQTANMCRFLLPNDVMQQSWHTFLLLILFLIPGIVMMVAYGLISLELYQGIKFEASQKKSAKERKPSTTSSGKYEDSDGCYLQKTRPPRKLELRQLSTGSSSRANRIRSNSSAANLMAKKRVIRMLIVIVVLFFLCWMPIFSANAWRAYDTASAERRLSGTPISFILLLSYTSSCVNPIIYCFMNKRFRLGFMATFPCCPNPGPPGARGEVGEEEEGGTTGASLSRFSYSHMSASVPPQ

CC(C)Cc1ncc(CCCCNC(=N)N)[nH]c1=O [3-Homo]
GPCR activation (heatmap value) (PTGER2): -0.3082 | GPCR activation (heatmap value) (GPR161): 0.03788 | GPCR activation (heatmap value) (GPR133): -0.3215 | GPCR activation (heatmap value) (PTAFR): -0.1375 | GPCR activation (heatmap value) (GPR173): -0.8728 | GPCR activation (heatmap value) (GHRHR): 0.5021 | GPCR activation (heatmap value) (GPR82): -0.5831 | GPCR activation (heatmap value) (GPR3): -1.589 | GPCR activation (heatmap value) (GPR62): 0.1938 | GPCR activation (heatmap value) (ADORA2A): 0.2086 | GPCR activation (heatmap value) (GPRC5A): 0.04883 | GPCR activation (heatmap value) (CCR8): -1.739 | GPCR activation (heatmap value) (P2RY12): 0.3372 | GPCR activation (heatmap value) (GPER): -0.07314 | GPCR activation (heatmap value) (CRHR2): -0.3278 | GPCR activation (heatmap value) (SUCNR1): -0.1091 | GPCR activation (heatmap value) (CCKAR): 0.3945 | GPCR activation (heatmap value) (APJ): 0.4932 | GPCR activation (heatmap value) (GPR84): 0.1656 | GPCR activation (heatmap value) (PTGER4): 0.407 | GPCR activation (heatmap value) (ADRA1A): -0.07966 | GPCR activation (heatmap value) (ADRA1B): -0.4471 | GPCR activation (heatmap value) (OPRM1): 0.127 | GPCR activation (heatmap value) (DRD1): 0.1434 | GPCR activation (heatmap value) (ADRB2): -0.1039 | GPCR activation (heatmap value) (AVPR2): 0.2692 | GPCR activation (heatmap value) (GPR110): -1.142 | GPCR activation (heatmap value) (GPR45): -0.6461 | GPCR activation (heatmap value) (BDKBR1): -0.9993 | GPCR activation (heatmap value) (ELTD1): 0.08719 | GPCR activation (heatmap value) (GPR15): -0.3204 | GPCR activation (heatmap value) (P2RY10): -0.398 | GPCR activation (heatmap value) (NMUR1): 0.8213 | GPCR activation (heatmap value) (GPR21): 0.4357 | GPCR activation (heatmap value) (P2RY13): 0.4611

CC(C)Cc1ncc(CCCNC(=N)N)[nH]c1=O [compound 3]
GPCR activation (heatmap value) (PTGER2): -0.3243 | GPCR activation (heatmap value) (GPR161): 0.1774 | GPCR activation (heatmap value) (GPR133): -0.6324 | GPCR activation (heatmap value) (PTAFR): -0.05027 | GPCR activation (heatmap value) (GPR173): -0.2495 | GPCR activation (heatmap value) (GHRHR): 0.3749 | GPCR activation (heatmap value) (GPR82): 0.0221 | GPCR activation (heatmap value) (GPR3): -0.8156 | GPCR activation (heatmap value) (GPR62): 1.991 | GPCR activation (heatmap value) (ADORA2A): 0.347 | GPCR activation (heatmap value) (GPRC5A): -0.3148 | GPCR activation (heatmap value) (CCR8): -0.8888 | GPCR activation (heatmap value) (P2RY12): 0.4559 | GPCR activation (heatmap value) (GPER): 0.1603 | GPCR activation (heatmap value) (CRHR2): -0.2766 | GPCR activation (heatmap value) (SUCNR1): 0.1336 | GPCR activation (heatmap value) (CCKAR): 0.06622 | GPCR activation (heatmap value) (APJ): 0.6044 | GPCR activation (heatmap value) (GPR84): -0.1947 | GPCR activation (heatmap value) (PTGER4): 0.5017 | GPCR activation (heatmap value) (ADRA1A): -0.2156 | GPCR activation (heatmap value) (ADRA1B): 0.1702 | GPCR activation (heatmap value) (OPRM1): 1.469 | GPCR activation (heatmap value) (DRD1): 0.8634 | GPCR activation (heatmap value) (ADRB2): 0.6209 | GPCR activation (heatmap value) (AVPR2): -1.811 | GPCR activation (heatmap value) (GPR110): 0.3323 | GPCR activation (heatmap value) (GPR45): 0.4781 | GPCR activation (heatmap value) (BDKBR1): -0.1783 | GPCR activation (heatmap value) (ELTD1): 0.3234 | GPCR activation (heatmap value) (GPR15): -0.8181 | GPCR activation (heatmap value) (P2RY10): -0.2181 | GPCR activation (heatmap value) (NMUR1): -0.191 | GPCR activation (heatmap value) (GPR21): 1.034 | GPCR activation (heatmap value) (P2RY13): -0.6143
